From patent US8618289B2 (Ambit Biosciences Corporation, priority 2008, dated 2013)
Where two headings read alike, the source gives them in different places.

Tests used:
RAF kinases [1] = biological target: T1, RAF kinases (Homo sapiens, UniProt P04049); conditions: read-out: RAF1 Kd; RAF1
RAF kinases [2] = biological target: RAF kinases (Homo sapiens, UniProt P15056); conditions: read-out: BRAF WT Kd; BRAF WT
RAF kinases [3] = biological target: T2, RAF kinases (Homo sapiens, UniProt P15056, V600E); conditions: read-out: BRAF V600E Kd; BRAF V600E
T2 sequence (P15056 whole entry V600E): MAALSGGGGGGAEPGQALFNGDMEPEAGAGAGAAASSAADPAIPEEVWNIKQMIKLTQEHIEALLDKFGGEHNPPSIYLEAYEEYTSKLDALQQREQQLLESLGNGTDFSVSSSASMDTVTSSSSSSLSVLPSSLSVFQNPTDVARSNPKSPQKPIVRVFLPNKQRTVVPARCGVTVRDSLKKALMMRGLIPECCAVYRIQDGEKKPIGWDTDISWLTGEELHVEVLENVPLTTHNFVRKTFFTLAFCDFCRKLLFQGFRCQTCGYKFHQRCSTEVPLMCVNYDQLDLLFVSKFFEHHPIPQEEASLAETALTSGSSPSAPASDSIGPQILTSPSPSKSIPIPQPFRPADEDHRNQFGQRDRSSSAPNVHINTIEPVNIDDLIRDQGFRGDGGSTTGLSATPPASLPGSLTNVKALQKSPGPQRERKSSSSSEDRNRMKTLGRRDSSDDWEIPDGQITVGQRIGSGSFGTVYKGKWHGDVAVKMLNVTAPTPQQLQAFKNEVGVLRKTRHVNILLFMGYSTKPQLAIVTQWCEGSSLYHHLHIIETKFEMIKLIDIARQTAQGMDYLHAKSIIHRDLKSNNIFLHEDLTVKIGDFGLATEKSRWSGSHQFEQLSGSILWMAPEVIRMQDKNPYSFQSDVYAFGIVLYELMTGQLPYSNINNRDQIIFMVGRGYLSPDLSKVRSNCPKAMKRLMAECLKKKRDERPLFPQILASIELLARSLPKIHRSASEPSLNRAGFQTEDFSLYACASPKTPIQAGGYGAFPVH

[4] = system: 290 distinct kinases tested excluding mutant variants (321 in the larger panel); conditions: no asterisk: panel of 290 distinct kinases
Protocol: Competition binding assays used herein were developed, validated and performed as described in Fabian et al., Nature Biotechnology 2005, 23, 329-336. […] The liganded beads were blocked with excess biotin and washed with blocking buffer (SeaBlock (Pierce), 1% BSA, 0.05% Tween 20, 1 mM DTT) to remove unbound ligand and to reduce non-specific binding. […] Test compounds were prepared as 100× stocks in DMSO and rapidly diluted into the aqueous environment. DMSO was added to control assays lacking a test compound. Primary screen interactions were performed in polypropylene 384-well plates in a final volume of 34 μt, while Kd determinations were performed in polystyrene 96-well plates in a final volume of 135 pt. […] The kinase concentration in the eluates was measured by quantitative PCR. Each kinase was tested individually against each compound. Kds were determined using eleven serial threefold dilutions. A selectivity score, which is a quantitative measure of selectivity of a compound against a panel of enzymes, may be calculated for a compound by dividing the number of enzymes for which a compound meets a set criteria, (for example, a binding constant of 100 nM or less), by the total number of enzymes tested. […] (Note, for those compounds tested in a larger kinase panel, as indicated by an asterisk (*) next to the S35 score, the divisor is 321 (i.e. the larger panel contains 321 distinct kinases, excluding mutant variants.)).

[5] = system: MEK1 phosphorylation in the A375 human melanoma cell line; experiment: cells; conditions: A-375, read-out: pMEK IC50
A375 cells = experiment: cells; conditions: Homo sapiens, A-375, read-out: A375 Viability EC50
RAF kinases [6] = biological target: T2, RAF kinases; experiment: biochemical
[7] = system: tumor growth or metastases; conditions: preclinical studies; Sharma et al.; cited from earlier work
Erk1/2 = conditions: carrageenan-induced pleurisy rat model; Sawatzky et al.; cited from earlier work
RAF kinases [8] = biological target: T1, RAF kinases; experiment: biochemical

T1 sequence (P04049 whole entry): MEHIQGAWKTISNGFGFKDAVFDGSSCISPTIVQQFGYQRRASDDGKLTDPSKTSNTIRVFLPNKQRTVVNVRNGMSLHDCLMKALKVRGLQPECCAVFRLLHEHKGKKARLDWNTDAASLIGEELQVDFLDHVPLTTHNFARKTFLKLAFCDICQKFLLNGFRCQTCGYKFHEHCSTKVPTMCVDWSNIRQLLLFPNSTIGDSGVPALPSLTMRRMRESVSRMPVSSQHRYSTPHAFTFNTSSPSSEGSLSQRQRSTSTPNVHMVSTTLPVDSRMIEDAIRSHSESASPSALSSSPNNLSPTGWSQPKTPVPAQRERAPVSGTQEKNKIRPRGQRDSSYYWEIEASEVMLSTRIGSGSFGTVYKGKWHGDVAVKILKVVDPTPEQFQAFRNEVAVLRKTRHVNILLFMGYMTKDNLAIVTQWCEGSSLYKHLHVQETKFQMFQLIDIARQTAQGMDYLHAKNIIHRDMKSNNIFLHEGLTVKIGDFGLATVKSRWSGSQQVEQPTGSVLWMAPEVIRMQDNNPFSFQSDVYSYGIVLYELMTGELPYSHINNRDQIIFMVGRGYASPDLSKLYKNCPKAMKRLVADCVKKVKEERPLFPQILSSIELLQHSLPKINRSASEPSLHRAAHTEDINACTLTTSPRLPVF
Sequence of RAF kinases (Homo sapiens, UniProt P15056) (P15056 whole entry): as the sequence (P15056 whole entry V600E) above, with E600V counted along it

SMILES | Kd (RAF kinases [1]) [nM] | Kd (RAF kinases [2]) [nM] | Kd (RAF kinases [3]) [nM] | S35 [4] | IC50 [5] [nM] | EC50 (A375 cells) [nM] | Kd (RAF kinases [6]) [nM] | tumor growth or metastases in animals [7] | eosinophilic proinflammatory cytokine release (Erk1/2) | Kd (RAF kinases [8]) [nM]
COc1cc2ncnc(Oc3cccc(NC(=O)Nc4cc(C(C)(C)C)nn4C4CCCCC4)c3)c2cc1OC [Ex 330, 1-(3-tert-butyl-1-cyclohexyl-1H-pyrazol-5-yl)-3-(3-(6,7-dimethoxyquinazolin-4-yloxy)phenyl)urea] | > 1000 | > 1000 | < 250 | C (0.20 < C ≦ 0.40) | > 1000 | > 1000 | – | – | – | –
COc1cc2ncnc(Sc3cccc(NC(=O)Nc4cc(C(C)(C)C)nn4-c4ccccc4C)c3)c2cc1OC [Ex 343, 1-(3-tert-butyl-1-o-tolyl-1H-pyrazol-5-yl)-3-(3-(6,7-dimethoxyquinazolin-4-ylthio)phenyl)urea] | > 1000 | > 1000 | – | C (0.20 < C ≦ 0.40) | < 250 | – | 250 to 500 | – | – | –
COc1cc2ncnc(Sc3cccc(NC(=O)Nc4cc(C(C)(C)C)nn4-c4ccccc4Cl)c3)c2cc1OC [Ex 341, 1-(3-tert-butyl-1-(2-chlorophenyl)-1H-pyrazol-5-yl)-3-(3-(6,7-dimethoxyquinazolin-4-ylthio)phenyl)urea] | > 1000 | > 1000 | – | C (0.20 < C ≦ 0.40) | < 250 | – | 250 to 500 | – | – | –
COc1cc2ncnc(Sc3cccc(NC(=O)Nc4cc(C5CC5)nn4-c4ccccc4)c3)c2cc1OC [Ex 354, 1-(3-cyclopropyl-1-phenyl-1H-pyrazol-5-yl)-3-(3-(6,7-dimethoxyquinazolin-4-ylthio)phenyl)urea] | < 250 | < 250 | < 250 | C (0.20 < C ≦ 0.40) | 250 to 500 | 250 to 500 | – | – | – | –
COc1cc2ncnc(Sc3cccc(NC(=O)Nc4cc(C(C)(C)C(F)(F)F)nn4-c4ccccc4)c3)c2cc1OC [Ex 307, 1-(3-(6,7-dimethoxyquinazolin-4-ylthio)phenyl)-3-(1-phenyl-3-(1,1,1-trifluoro-2-methylpropan-2-yl)-1H-pyrazol-5-yl)urea] | > 1000 | > 1000 | – | D (D > 0.40) | < 250 | – | 250 to 500 | – | – | –
CCc1cc(NC(=O)Nc2cccc(Oc3ncnc4cc(OC)c(OC)cc34)c2)n(-c2ccccc2)n1 [Ex 352, 1-(3-(6,7-dimethoxyquinazolin-4-yloxy)phenyl)-3-(3-ethyl-1-phenyl-1H-pyrazol-5-yl)urea] | < 250 | < 250 | < 250 | C (0.20 < C ≦ 0.40) | 500 to 1000 | 250 to 500 | – | – | – | –
CNC(=O)c1cc(Oc2ccc(NC(=O)Nc3ccc(Cl)c(C(F)(F)F)c3)cc2)ccn1 [Sorafenib] | – | – | – | – | – | – | – | decrease in tumor growth or metastases | – | –
COc1cc2ncnc(Oc3cccc(NC(=O)Nc4cc(C(C)(C)C)nn4-c4ccnc(C)c4)c3)c2cc1OC [Ex 320, 1-(3-tert-butyl-1-(2-methylpyridin-4-yl)-1H-pyrazol-5-yl)-3-(3-(6,7-dimethoxyquinazolin-4-yloxy)phenyl)urea] | > 1000 | > 1000 | < 250 | D (D > 0.40) | < 250 | – | – | – | – | –
COc1cccc(-c2cc(=O)c3ccccc3o2)c1N [PD98059] | – | – | – | – | – | – | – | – | inhibits eosinophilic proinflammatory cytokine release | –
COc1cc2ncnc(Oc3cccc(NC(=O)Nc4cc(C(C)(F)F)nn4-c4cccnc4)c3)c2cc1OC [Ex 311, 1-(3-(1,1-difluoroethyl)-1-(pyridin-3-yl)-1H-pyrazol-5-yl)-3-(3-(6,7-dimethoxyquinazolin-4-yloxy)phenyl)urea] | < 250 | < 250 | < 250 | C (0.20 < C ≦ 0.40) | 250 to 500 | 250 to 500 | – | – | – | –
COc1cc2ncnc(Sc3cccc(NC(=O)Nc4cc(C5(C(F)(F)F)CC5)nn4-c4ccc(C)cc4)c3)c2cc1OC [Ex 347, 1-(3-(6,7-dimethoxyquinazolin-4-ylthio)phenyl)-3-(1-p-tolyl-3-(1-(trifluoromethyl)cyclopropyl)-1H-pyrazol-5-yl)urea] | > 1000 | > 1000 | – | D (D > 0.40) | < 250 | – | 250 to 500 | – | – | –
COc1cc2nc(Cl)nc(Oc3cccc(NC(=O)Nc4cc(C(C)(C)C)on4)c3)c2cc1OC [Ex 310, 1-(5-tert-butylisoxazol-3-yl)-3-(3-(2-chloro-6,7-dimethoxyquinazolin-4-yloxy)phenyl)urea] | – | > 1000 | – | A (A ≦ 0.10) | > 1000 | > 1000 | 500 to 1000 | – | – | 500 to 1000
COc1cc2ncnc(Oc3cccc(NC(=O)Nc4cc(C(C)C)nn4-c4cccnc4)c3)c2cc1OC [Ex 350, 1-(3-(6,7-dimethoxyquinazolin-4-yloxy)phenyl)-3-(3-isopropyl-1-(pyridin-3-yl)-1H-pyrazol-5-yl)urea] | < 250 | < 250 | < 250 | D (D > 0.40) | 250 to 500 | 250 to 500 | – | – | – | –
COc1cc2ncnc(Oc3cccc(NC(=O)Nc4cc(C(C)(C)C)nn4-c4ccccc4C)c3)c2cc1OC [Ex 342, 1-(3-tert-butyl-1-o-tolyl-1H-pyrazol-5-yl)-3-(3-(6,7-dimethoxyquinazolin-4-yloxy)phenyl)urea] | > 1000 | > 1000 | – | D (D > 0.40) | < 250 | – | 250 to 500 | – | – | –
COc1cc2ncnc(Oc3cccc(NC(=O)Nc4cc(C(C)(C)C)nn4-c4ccc(=O)[nH]c4)c3)c2cc1OC [Ex 317, 1-(3-tert-butyl-1-(6-oxo-1,6-dihydropyridin-3-yl)-1H-pyrazol-5-yl)-3-(3-(6,7-dimethoxyquinazolin-4-yloxy)phenyl)urea] | – | > 1000 | < 250 | D (D > 0.40) | > 1000 | > 1000 | – | – | – | 500 to 1000
COc1cc2ncnc(Sc3cccc(NC(=O)Nc4cc(C(C)(C)C)nn4-c4ccccn4)c3)c2cc1OC [Ex 345, 1-(3-tert-butyl-1-(pyridin-2-yl)-1H-pyrazol-5-yl)-3-(3-(6,7-dimethoxyquinazolin-4-ylthio)phenyl)urea] | > 1000 | > 1000 | > 1000 | B (0.10 < B ≦ 0.20) | 500 to 1000 | > 1000 | – | – | – | –
COc1cc2ncnc(Oc3cccc(NC(=O)Nc4cc(C(C)(C)C)nn4-c4ccccc4Cl)c3)c2cc1OC [Ex 340, 1-(3-tert-butyl-1-(2-chlorophenyl)-1H-pyrazol-5-yl)-3-(3-(6,7-dimethoxyquinazolin-4-yloxy)phenyl)urea] | > 1000 | > 1000 | – | D (D > 0.40) | < 250 | – | 250 to 500 | – | – | –
COc1cc2ncnc(Oc3cccc(NC(=O)Nc4cc(C(C)(C)C)nn4-c4ccccn4)c3)c2cc1OC [Ex 344, 1-(3-tert-Butyl-1-(pyridin-2-yl)-1H-pyrazol-5-yl)-3-(3-(6,7-dimethoxyquinazolin-4-yloxy)phenyl)urea] | > 1000 | > 1000 | – | C (0.20 < C ≦ 0.40) | 500 to 1000 | – | 500 to 1000 | – | – | –
